The subject of test [1] is α-synuclein-induced dopaminergic neuronal death in baIn11 animals. Kind of test: α-synuclein-based Parkinson's Disease model, DA neuronal death. The test is classed as in vivo, C. elegans. The note with it: 50 μM, adult day 2 (FIG. 8c). The text has this:
FIG. 8. […] In each experiment, 300 animals were scored to determine the percentage of animals losing at least one dopaminergic neuron in the head. Data are mean±s.e.m. *P<0.05; ***P<0.001, two-sided, unpaired t-test.
FIG. 13. […] In each experiment, 300 animals were scored to determine the percentage of animals losing at least one of the six dopaminergic neurons in the head. Data are mean±s.e.m. ****P<0.001, two-sided, unpaired t-test.
In addition to PME and apoptosis, EndoG was previously shown to play an important role in mediating dopaminergic (DA) neuronal death induced by expression of human α-synuclein, which is widely considered to be a major proponent of Parkinson's disease. However, the mechanism by which EndoG mediates α-synuclein-induced neurodegeneration is unclear. In a C. elegans α-synuclein-based Parkinson's Disease model, co-expression of GFP and human α-synuclein in C. elegans dopaminergic neurons under the control of the promoter of the dat-1 gene, which encodes a dopamine transporter, from an integrated transgene baIn11 (Pdat-1::gfp/Pdat-1::α-synuclein) caused DA neuronal death in 30% of adult baIn11 animals (FIG. 8a). The cps-6(tm3222) mutation blocked DA neuronal death in adult baIn11 animals (FIG. 8a), confirming that CPS-6 is important for α-synuclein-induced DA neuronal death.

Test [2] relates to paternal mitochondrial elimination (PME) in C. elegans wild-type (N2) cross-fertilized embryos. Description: PME fluorescent microscopy assay (MTR-stained paternal mitochondrial clusters), N2 males x N2 hermaphrodites. The test is classed as in vivo. To be noted: for effect on PME in the screen: compound 100 μM, 64-cell stage embryos (FIG. 1a). On the procedure:
FIG. 1. […] The numbers of MTR-stained paternal mitochondrial clusters in 64-cell cross-fertilized embryos from mating of MTR-stained N2 males with N2 hermaphrodites in the presence of the indicated compounds (100 μM) were scored. n≥15 embryos for each compound. b, d-g, Quantification of MTR-stained paternal mitochondrial clusters in 64-cell stage embryos (b, d-f) or in embryos at the indicated stage (g) from the cross between MTR-stained N2 males and N2 hermaphrodites, in the presence of 0.25% ethanol (Mock) or 50 μM of the indicated compound. In each experiment, n>40 embryos (b,d,e), n=20 embryos (f), and n≥10 embryos (g) were scored, respectively. […] Data are mean±s.e.m. **P<0.01, ***P<0.001; n.s., not significant, two-sided, unpaired t-test.
FIG. 7. Effects of different dosages of resveratrol isomers on PME. a, b, The effects of different dosages of cis-resveratrol (a) and trans-resveratrol (b) on PME. The numbers of MTR-stained paternal mitochondrial clusters in 64-cell embryos (a) or 16-cell embryos (b) from mating of MTR-stained N2 males with N2 hermaphrodites in the presence of the indicated concentrations of resveratrol isomers were scored. […] N2 hermaphrodites and MTR-stained uaDf5/+ males were mated as indicated in the presence of 0.25% ethanol (Mock, d), 50 μM trans-resveratrol (e), or 50 μM cis-resveratrol (f). Males also carried smIs42, an integrated Psur-5sur-5::gfp transgene, which directs GFP expression in all somatic cells in most developmental stages, and was used to track cross progeny. A single cross-fertilized embryo or larva (MTR- or GFP-positive) at the indicated stage was analyzed by PCR. uaDf5/+ and N2 hermaphrodites were controls.
FIG. 12. […] Quantification of MTR-stained paternal mitochondrial clusters at the indicated embryonic stages from the cross between MTR-stained N2 males and N2 hermaphrodites, in the presence of 0.25% ethanol (Mock) or 50 μM of the indicated compound. In each experiment, n≥10 embryos embryos. Data are mean±s.e.m. **P<0.01, ***P<0.001; n.s., not significant, two-sided, unpaired t-test.
Following fertilization, paternal mitochondria are rapidly depolarized and damaged in fertilized eggs, which could generate and release reactive oxygen species (ROS) that affect PME and embryo development. We thus screened twelve small molecules derived from natural products that have been used as antioxidants for the potential activity in modulating PME (FIG. 6a), using a fluorescent microscopy assay. In this assay, C. elegans wild-type (N2) males prestained with Mitotracker Red (MTR), a mitochondrion-specific fluorescent dye, were mated with unstained N2 hermaphrodites in the presence of the compound of interest ([…]) and the cross-fertilized embryos were examined for the presence of MTR-stained paternal mitochondria or mitochondrial clusters.

The next test deals with T1, CPS-6 (Caenorhabditis elegans, UniProt Q95NM6).
T1 construct: Recombinant CPS-6 protein was incubated with the supercoiled plasmid DNA substrate
T1 sequence (Q95NM6 1-308): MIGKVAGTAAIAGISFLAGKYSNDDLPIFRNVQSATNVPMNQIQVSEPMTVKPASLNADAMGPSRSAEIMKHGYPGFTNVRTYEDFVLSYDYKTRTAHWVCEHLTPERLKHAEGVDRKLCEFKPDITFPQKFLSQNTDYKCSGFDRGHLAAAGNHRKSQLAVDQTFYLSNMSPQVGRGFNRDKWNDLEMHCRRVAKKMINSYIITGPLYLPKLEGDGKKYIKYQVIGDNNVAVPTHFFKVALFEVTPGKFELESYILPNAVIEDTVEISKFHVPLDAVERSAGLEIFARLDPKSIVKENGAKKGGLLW
Description: plasmid DNA cleavage assay. Type of test: biochemical, C. elegans. To be noted: 20 μM. As to the method:
FIG. 3. Resveratrol isomers target CPS-6 to affect PME. a, b, Both cis-resveratrol and trans-resveratrol act paternally to affect PME. The numbers of MTR-stained paternal mitochondrial clusters in embryos at 64-cell (a) or 16-cell (b) stage from the indicated crosses were scored. N2 males or hermaphrodites were pretreated with 0.25% ethanol (Mock), 50 μM cis-resveratrol (a), or 50 μM trans-resveratrol (b) as indicated before mating. c-g, Quantification of MTR-stained paternal mitochondrial clusters in 64-cell embryos from the indicated crosses treated with 0.25% ethanol (Mock), 50 μM cis-resveratrol, and 50 μM trans-resveratrol, respectively. Alleles used are lgg-1(bp523), cps-6(tm3222) and rad-23(tm2595). Data are mean s.e.m; n≥15 embryos (a) and n≥20 embryos (b, c-g) were scored in each experiment. ***P<0.001; n.s., not significant, two-sided, unpaired t-test. h, Resveratrol isomers enhance or inhibit the nuclease activity of CPS-6 in a plasmid DNA cleavage assay. 10 ng of CPS-6 were incubated with 0.25% ethanol (Mock), 20 μM cis-resveratrol, or 20 μM trans-resveratrol in dark at 4° C. for 1.5 hours, before 1 μg of the pPD49.78 plasmid DNA were added to the reactions. After further incubation at 30° C. for 1 hour, the reactions were resolved on a 1% agarose gel. Three different forms of plasmid DNA are indicated.
FIG. 11. Stabilized trans-resveratrol enhances the nuclease activity of CPS-6 in a plasmid DNA cleavage assay and is resistant to UV irradiation. 10 ng of CPS-6 were incubated with 0.25% ethanol (Mock), 20 μM locked trans-resveratrol with or without UV irradiation, 20 μM trans-resveratrol with or without UV irradiation, and 20 μM cis-resveratrol with or without UV irradiation, respectively, in dark at 4° C. for 1.5 hours, before 1 μg of the pPD49.78 plasmid DNA were added to the reactions. After further incubation at 30° C. for 1 hour, the reactions were resolved on a 1% agarose gel. Three different forms of plasmid DNA are indicated. Resveratrol isomers or derivative were subjected to UV irradiation for 3 hours.
Because resveratrol is an antioxidant and the endonuclease activity of CPS-6 is regulated by redox conditions both in vitro and in vivo, we investigated the possibility that resveratrol isomers could directly affect the nuclease activity of CPS-6 using a plasmid DNA cleavage assay. Recombinant CPS-6 protein was incubated with the supercoiled plasmid DNA substrate in the presence or absence of 20 μM trans-resveratrol or cis-resveratrol and the reactions were resolved by an agarose gel. […] Since the nuclease activity of CPS-6 is required for PME, these in vitro results are consistent with the in vivo observations that trans-resveratrol enhances and cis-resveratrol inhibits PME.

In test [3] the test system is PME defect of lgg-1(bp523) embryos (autophagy pathway). Description: PME microscopy assay in lgg-1(bp523) crosses. To be noted: FIG. 6c. The test is classed as in vivo, C. elegans.
Description: (§1) The numbers of MTR-stained paternal mitochondrial clusters were scored as in FIG. 1a. cps-6(tm3222) and lgg-1(bp523) alleles were used in the assays. Data are mean±s.e.m. n=20 embryos (b) and 15 embryos (c) in each experiment. **P<0.01; ***P<0.001; n.s., not significant, two-sided, unpaired t-test.
(§2) To investigate how these six compounds might affect PME, the present inventors performed chemical genetic analysis to analyze the PME pathways that might be affected by the compounds. The present inventors first examined whether they might affect the paternal PME pathway mediated by the mitochondrial endonuclease CPS-6, whose activity is inhibited by oxidation and protected by reducing agents.
Test [4] has as its system PME defect of cps-6(tm3222) embryos. Description: PME microscopy assay in cps-6(tm3222) crosses. Type of test: in vivo, C. elegans. To be noted: 64-cell embryos, scored as in FIG. 1a (FIG. 6b); DMSO control average of 17 clusters.
Description: as §1, §2
The next test has as its system EndoG. The note with it: stated in discussion, no test described; cited from earlier work.

Regarding `Oc1ccc(/N=C/c2cc(O)cc(O)c2)cc1`, the “adult baIn11 animals with neurodegeneration (DA neuronal loss)” value in test [1] was 45%. Also, the “dynamics of PME at different embryonic stages” value in test [2] (50 μM vs 0.25% ethanol mock (FIG. 1g, FIG. 12)) is given as “identical activity in promoting PME”. The “effect on CPS-6 nuclease activity” value at CPS-6 (10 ng CPS-6, pPD49.78 plasmid DNA) is recorded as “similarly enhance the endonuclease activity of CPS-6 like trans-resveratrol”. On CPS-6 (compound UV irradiated for 3 hours (FIG. 11)), the “effect on CPS-6 nuclease activity after UV irradiation of the compound” value is reported as “did not alter the activity”.
As for `O=c1cc(-c2ccc(O)cc2)oc2cc(O)cc(O)c12` [apigenin], in test [3], the “enhancement of the PME defect in lgg-1 deficient embryos, screen compounds” value (from here on “enhancement of the PME defect”) is recorded as “enhanced the PME defect”. Besides, in test [4], the “effect on PME defect of cps-6(tm3222) embryos, screen compounds” value (from here on “effect on PME defect”) is given as “significantly increased the number of paternal mitochondrial clusters”.
For `O=C1O[C@H]([C@@H](O)CO)C(O)=C1O` [ascorbic acid, reference compound], the “effect on PME in the screen” value in test [2] was “did not inhibit PME”.
As to `CC1=C(/C=C/C(C)=C/C=C/C(C)=C/C=C/C=C(C)/C=C/C=C(C)/C=C/C2=C(C)C(=O)[C@@H](O)CC2(C)C)C(C)(C)C[C@H](O)C1=O` [astaxanthin, reference compound], in test [2], the “effect on PME in the screen” value is “did not inhibit PME”.
`O=c1cc(-c2ccccc2)oc2cc(O)c(O)c(O)c12` [baicalein]: in test [3], the “enhancement of the PME defect” value was “not”. In addition, the “effect on PME defect” value in test [4] was “significantly increased the number of paternal mitochondrial clusters”.
In the case of `Oc1cc(O)c2c(c1)O[C@H](c1ccc(O)c(O)c1)[C@@H](O)C2` [catechinic acid, reference compound], the “effect on PME in the screen” value in test [2] was “did not inhibit PME”.
For the compound `COc1cc(/C=C/C(=O)CC(=O)/C=C/c2ccc(O)c(OC)c2)ccc1O` [curcumin], the “effect on PME defect” value in test [4] is “significantly increased the number of paternal mitochondrial clusters”.
`Nc1nc2ncc(CNc3ccc(C(=O)N[C@@H](CCC(=O)O)C(=O)O)cc3)nc2c(=O)[nH]1` [folic acid, reference compound]: the “effect on PME in the screen” value in test [2] was “did not inhibit PME”.
Take `CC(CC(=O)C[C@@H](C)[C@H]1CC(=O)[C@@]2(C)C3=C(C(=O)C[C@]12C)[C@@]1(C)CC[C@H](O)C(C)(C)[C@@H]1C[C@@H]3O)C(=O)O` (stereo partly shown) [ganoderic acid B]: the “enhancement of the PME defect” value in test [3] is “enhanced the PME defect”. Further, the “effect on PME defect” value in test [4] is recorded as “significantly increased the number of paternal mitochondrial clusters”.
With `N[C@@H](CCC(=O)N[C@@H](CS)C(=O)NCC(=O)O)C(=O)O` [glutathione, reference compound], in test [2], the “effect on PME in the screen” value was “did not inhibit PME”.
Still for that read-out and setting: as for `C[n+]1ccc(-c2cc[n+](C)cc2)cc1` [paraquat, reference compound], the entry is “inhibited PME”.
With `O=c1c(O)c(-c2ccc(O)c(O)c2)oc2cc(O)cc(O)c12` [quercetin], the “effect on PME defect” value in test [4] was “significantly increased the number of paternal mitochondrial clusters”.
Regarding `Oc1ccc(/C=C/c2cc(O)cc(O)c2)cc1` [resveratrol, 3,5,4′-trihydroxy-trans-stilbene], in test [3], the “enhancement of the PME defect” value is “enhanced the PME defect”. Also, the “effect on PME defect” value in test [4] is listed as “did not affect the PME defect”. Further, in the test with EndoG, the “affinity of resveratrol to EndoG” value is on record as “nanomolar affinity”.
For the compound `O=C(OC[C@H]1O[C@@H](OC(=O)c2cc(O)c(O)c(OC(=O)c3cc(O)c(O)c(O)c3)c2)[C@H](OC(=O)c2cc(O)c(O)c(OC(=O)c3cc(O)c(O)c(O)c3)c2)[C@@H](OC(=O)c2cc(O)c(O)c(OC(=O)c3cc(O)c(O)c(O)c3)c2)[C@@H]1OC(=O)c1cc(O)c(O)c(OC(=O)c2cc(O)c(O)c(O)c2)c1)c1cc(O)c(O)c(OC(=O)c2cc(O)c(O)c(O)c2)c1` [tannic acid, reference compound], the “effect on PME in the screen” value in test [2] is “did not inhibit PME”.

(Values after patent US20250346550A1, “METHODS OF MODULATING ENDONUCLEASE G USING RESVERATROL AND ITS DERIVATIVES” (THE REGENTS OF THE UNIVERSITY OF COLORADO A BODY CORPORATE, priority 2022, published 2025).)
